Data taken from ChEMBL document CHEMBL4190187, “Discovery of pyrazolopyrimidine derivatives as novel inhibitors of ataxia telangiectasia and rad3 related protein (ATR)” (Bioorg Med Chem Lett, 2017).
Values joined by “and” are separate entries in the source; they are usually repeats but may differ in a detail not shown here. Equal entries are not always repeated.

Biological target: T1, Tyrosine-protein kinase BTK (Homo sapiens, UniProt Q06187)
Assay: Inhibition of BTK (unknown origin) at 100 nM
Conditions: not given

T1 sequence (Q06187 whole entry): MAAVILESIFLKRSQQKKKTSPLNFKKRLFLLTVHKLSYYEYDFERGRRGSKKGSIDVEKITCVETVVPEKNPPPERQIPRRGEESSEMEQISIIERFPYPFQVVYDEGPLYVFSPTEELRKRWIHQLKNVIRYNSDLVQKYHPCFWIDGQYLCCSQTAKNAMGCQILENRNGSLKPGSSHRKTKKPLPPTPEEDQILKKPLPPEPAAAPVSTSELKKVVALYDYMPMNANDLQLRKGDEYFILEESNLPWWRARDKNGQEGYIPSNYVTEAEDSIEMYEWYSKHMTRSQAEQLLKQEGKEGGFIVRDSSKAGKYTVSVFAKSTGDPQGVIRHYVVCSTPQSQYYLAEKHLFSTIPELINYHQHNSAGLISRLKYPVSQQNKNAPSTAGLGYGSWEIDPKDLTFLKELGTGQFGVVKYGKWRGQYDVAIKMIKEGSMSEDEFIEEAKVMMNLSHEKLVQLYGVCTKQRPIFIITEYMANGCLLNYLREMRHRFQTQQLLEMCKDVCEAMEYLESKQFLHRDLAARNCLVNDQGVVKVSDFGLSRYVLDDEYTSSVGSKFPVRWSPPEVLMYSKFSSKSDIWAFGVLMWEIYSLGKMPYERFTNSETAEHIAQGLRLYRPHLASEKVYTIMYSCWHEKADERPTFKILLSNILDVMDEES

inhibition | Compound
24% | Nc1ncnc2c1c(-c1cnc3[nH]ccc3c1)nn2C1CCc2ccccc2C1 (racemic) [listing 1 of 2 here]

Biological target: Phosphatidylinositol 4,5-bisphosphate 3-kinase catalytic subunit delta isoform (Homo sapiens) (UniProt O00329)
Sequence (O00329 whole entry, canonical isoform): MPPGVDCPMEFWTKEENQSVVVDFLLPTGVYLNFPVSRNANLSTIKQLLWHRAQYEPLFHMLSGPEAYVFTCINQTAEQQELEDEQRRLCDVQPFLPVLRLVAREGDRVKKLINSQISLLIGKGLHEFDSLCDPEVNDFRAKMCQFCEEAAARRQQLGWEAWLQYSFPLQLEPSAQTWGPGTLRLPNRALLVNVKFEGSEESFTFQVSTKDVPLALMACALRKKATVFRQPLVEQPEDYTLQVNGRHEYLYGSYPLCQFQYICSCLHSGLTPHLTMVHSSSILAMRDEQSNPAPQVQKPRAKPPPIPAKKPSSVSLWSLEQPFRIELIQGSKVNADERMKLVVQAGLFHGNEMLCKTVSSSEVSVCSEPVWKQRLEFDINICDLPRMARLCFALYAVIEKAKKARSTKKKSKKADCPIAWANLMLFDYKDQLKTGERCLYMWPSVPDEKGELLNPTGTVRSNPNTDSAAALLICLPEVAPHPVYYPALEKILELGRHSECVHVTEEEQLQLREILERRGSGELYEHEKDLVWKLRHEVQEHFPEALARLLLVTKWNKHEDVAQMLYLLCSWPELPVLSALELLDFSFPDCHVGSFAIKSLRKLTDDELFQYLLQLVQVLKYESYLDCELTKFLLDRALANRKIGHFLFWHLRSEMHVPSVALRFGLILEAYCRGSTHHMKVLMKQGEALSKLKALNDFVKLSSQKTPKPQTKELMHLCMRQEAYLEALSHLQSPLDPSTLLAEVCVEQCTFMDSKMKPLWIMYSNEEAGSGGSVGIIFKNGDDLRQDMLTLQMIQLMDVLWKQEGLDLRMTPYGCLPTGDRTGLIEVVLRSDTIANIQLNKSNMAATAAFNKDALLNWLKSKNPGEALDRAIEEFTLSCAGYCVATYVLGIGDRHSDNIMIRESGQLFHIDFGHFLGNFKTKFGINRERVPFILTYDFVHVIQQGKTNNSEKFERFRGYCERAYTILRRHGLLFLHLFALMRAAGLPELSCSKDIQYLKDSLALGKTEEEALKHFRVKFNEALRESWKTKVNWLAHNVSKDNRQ
Assay: Inhibition of PI3Kdelta (unknown origin) at 100 nM
Conditions: not given

inhibition | Compound
52% | Nc1ncnc2c1c(-c1cnc3[nH]ccc3c1)nn2C1CCc2ccccc2C1 (racemic) [listing 1 of 2 here]

Biological target: Serine/threonine-protein kinase ATR (Homo sapiens, UniProt Q13535)
Sequence (Q13535 whole entry): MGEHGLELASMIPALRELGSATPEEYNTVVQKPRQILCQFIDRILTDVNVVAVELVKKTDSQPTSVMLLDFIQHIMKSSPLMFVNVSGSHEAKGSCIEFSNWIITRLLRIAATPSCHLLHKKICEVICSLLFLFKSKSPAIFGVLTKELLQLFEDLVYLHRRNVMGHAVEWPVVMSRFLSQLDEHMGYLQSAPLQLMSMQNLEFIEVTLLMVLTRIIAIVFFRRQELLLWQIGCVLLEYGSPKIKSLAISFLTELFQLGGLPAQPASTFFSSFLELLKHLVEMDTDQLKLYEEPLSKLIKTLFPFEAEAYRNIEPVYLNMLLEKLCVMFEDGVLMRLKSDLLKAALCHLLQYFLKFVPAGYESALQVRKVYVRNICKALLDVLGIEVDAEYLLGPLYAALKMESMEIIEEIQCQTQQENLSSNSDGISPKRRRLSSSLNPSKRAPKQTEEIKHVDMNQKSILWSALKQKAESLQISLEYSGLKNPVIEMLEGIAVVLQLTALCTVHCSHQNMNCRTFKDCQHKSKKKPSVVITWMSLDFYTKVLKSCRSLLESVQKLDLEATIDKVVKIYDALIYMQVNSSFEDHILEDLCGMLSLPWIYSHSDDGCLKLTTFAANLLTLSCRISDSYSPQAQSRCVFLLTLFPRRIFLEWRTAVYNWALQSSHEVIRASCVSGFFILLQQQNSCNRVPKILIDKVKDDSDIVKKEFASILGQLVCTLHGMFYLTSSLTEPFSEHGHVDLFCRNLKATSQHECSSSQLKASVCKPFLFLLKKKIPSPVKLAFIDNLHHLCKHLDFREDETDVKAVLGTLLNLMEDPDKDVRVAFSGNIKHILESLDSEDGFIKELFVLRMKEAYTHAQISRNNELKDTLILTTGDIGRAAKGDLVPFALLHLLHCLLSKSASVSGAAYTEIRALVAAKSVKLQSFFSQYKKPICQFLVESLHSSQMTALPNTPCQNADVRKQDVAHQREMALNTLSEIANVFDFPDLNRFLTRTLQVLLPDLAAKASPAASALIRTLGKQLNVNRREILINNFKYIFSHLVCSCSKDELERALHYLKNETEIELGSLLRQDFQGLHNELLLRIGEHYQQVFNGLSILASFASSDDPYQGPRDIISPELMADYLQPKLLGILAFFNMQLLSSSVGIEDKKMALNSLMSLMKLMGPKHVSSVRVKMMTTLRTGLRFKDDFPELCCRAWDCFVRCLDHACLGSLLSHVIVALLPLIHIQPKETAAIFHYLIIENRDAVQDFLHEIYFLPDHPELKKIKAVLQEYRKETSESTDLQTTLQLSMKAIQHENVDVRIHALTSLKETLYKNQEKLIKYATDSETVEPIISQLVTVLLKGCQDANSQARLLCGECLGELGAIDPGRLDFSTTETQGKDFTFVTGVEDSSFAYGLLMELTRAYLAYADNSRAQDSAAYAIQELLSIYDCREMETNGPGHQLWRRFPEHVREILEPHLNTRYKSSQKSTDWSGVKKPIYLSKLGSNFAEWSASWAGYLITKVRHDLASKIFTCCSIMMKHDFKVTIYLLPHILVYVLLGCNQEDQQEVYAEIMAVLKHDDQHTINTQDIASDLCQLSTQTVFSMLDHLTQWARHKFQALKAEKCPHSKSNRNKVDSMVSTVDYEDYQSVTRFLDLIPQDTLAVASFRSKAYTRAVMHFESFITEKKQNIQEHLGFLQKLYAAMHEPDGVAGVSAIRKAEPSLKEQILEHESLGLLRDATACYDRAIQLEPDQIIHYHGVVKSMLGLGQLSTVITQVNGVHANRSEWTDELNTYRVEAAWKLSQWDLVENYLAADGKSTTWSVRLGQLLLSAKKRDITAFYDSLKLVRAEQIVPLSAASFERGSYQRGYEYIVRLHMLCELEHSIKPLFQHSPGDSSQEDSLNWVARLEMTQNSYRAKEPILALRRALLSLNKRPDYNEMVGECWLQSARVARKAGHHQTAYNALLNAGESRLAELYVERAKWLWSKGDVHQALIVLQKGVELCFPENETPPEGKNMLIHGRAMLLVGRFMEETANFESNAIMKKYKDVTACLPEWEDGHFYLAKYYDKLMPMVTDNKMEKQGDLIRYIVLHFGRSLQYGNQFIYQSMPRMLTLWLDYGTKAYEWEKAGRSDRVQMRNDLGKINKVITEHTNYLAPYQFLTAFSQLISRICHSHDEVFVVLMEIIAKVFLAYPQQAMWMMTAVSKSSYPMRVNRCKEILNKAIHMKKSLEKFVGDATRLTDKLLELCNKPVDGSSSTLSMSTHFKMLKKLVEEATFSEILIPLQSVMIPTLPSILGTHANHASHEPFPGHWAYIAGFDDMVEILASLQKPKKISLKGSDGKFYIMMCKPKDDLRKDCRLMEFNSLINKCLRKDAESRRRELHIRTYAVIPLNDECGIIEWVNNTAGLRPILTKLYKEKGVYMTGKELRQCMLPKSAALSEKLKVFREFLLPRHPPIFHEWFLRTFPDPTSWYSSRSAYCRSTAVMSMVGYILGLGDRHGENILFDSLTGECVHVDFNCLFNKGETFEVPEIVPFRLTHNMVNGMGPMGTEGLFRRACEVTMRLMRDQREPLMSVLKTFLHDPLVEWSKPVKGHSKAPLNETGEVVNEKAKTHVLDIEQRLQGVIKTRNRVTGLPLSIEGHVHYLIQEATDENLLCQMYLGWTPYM
Assay: Inhibition of human recombinant FLAG-tagged full length ATR expressed in mammalian cell line co-expressing human recombinant cMyc-tagged full length ATRIP
Conditions: not given

Compound | IC50
Nc1ncnc2c1c(-c1c[nH]c3ncccc13)nn2C1CCc2ccccc2C1 (racemic) | > 30 µM
Nc1nc2c(s1)CC(n1nc(-c3cnc4[nH]ccc4c3)c3c(N)ncnc31)CC2 (configuration not stated) | 0.547 µM and 0.269 µM
Nc1nc2c(s1)CC(n1nc(-c3cc(F)c4[nH]ccc4c3)c3c(N)ncnc31)CC2 (configuration not stated) | 2.63 µM
CS(=O)(=O)N1CCC(n2nc(-c3cnc4[nH]ccc4c3)c3c(N)ncnc32)CC1 | 1.32 µM
Nc1ncnc2c1c(-c1cccnc1)nn2C1CCc2ccccc2C1 (racemic) | > 30 µM
Nc1ncnc2c1c(-c1cnc3[nH]ccc3c1)nn2C1CCc2ccccc2C1 (racemic) [listing 2 of 2 here] | 0.212 µM
Nc1ncnc2c1c(-c1cnc3[nH]ccc3c1)nn2C1CCCC1 | 1.42 µM
Nc1ncnc2c1c(-c1ccc3[nH]ccc3c1)nn2C1CCc2ccccc2C1 (racemic) | 1.59 µM
Nc1ncnc2c1c(-c1cnc3[nH]ccc3c1)nn2C1CCc2ccccc2C1 (stereo in doubt; 1') | 0.158 µM
Nc1ncnc2c1c(-c1cnc3[nH]ccc3c1)nn2C1Cc2ccccc2C1 | 0.654 µM
Nc1ncnc2c1c(-c1ccc(Br)c(O)c1)nn2C1Cc2ccccc2C1 | 3.56 µM
Nc1ncnc2c1c(-c1cnc3[nH]ccc3c1)nn2C1CCc2ccccc2C1 (stereo in doubt; 1) | 0.304 µM

Further lines, results first:

IC50 | Compound
> 30 µM | c1ccc2c(c1)CCC(n1nc(-c3cnc4[nH]ccc4c3)c3cncnc31)C2 (racemic)
19.3 µM | Nc1ccc(-c2nn(C3CCc4ccccc4C3)c3ncnc(N)c23)cn1 (racemic)
4.62 µM | Nc1ncnc2c1c(-c1cnc3cc[nH]c3c1)nn2C1CCc2ccccc2C1 (racemic)
1.86 µM | Nc1ncnc2c1c(-c1ccc(Br)c(O)c1)nn2C1CCc2ccccc21 (configuration not stated)
> 30 µM | Nc1ccnc2c1c(-c1cnc3[nH]ccc3c1)nn2C1CCc2ccccc2C1 (racemic)
19.1 µM | Nc1ncnc2c1c(-c1ccc(N3CCCC3)nc1)nn2C1CCc2ccccc2C1 (racemic)
0.58 µM | Cn1ccc2cc(-c3nn(C4CCc5ccccc5C4)c4ncnc(N)c34)cnc21 (racemic)
22.4 µM | Nc1ncnc2c1c(-c1cnc3[nH]c(=O)ccc3c1)nn2C1CCc2ccccc2C1 (racemic)

Biological target: T1, Tyrosine-protein kinase BTK
Assay: Inhibition of BTK (unknown origin)
Conditions: not given

IC50 | Compound
0.022 µM | Nc1nc2c(s1)CC(n1nc(-c3cc(F)c4[nH]ccc4c3)c3c(N)ncnc31)CC2 (configuration not stated)

Biological target: Phosphatidylinositol 4,5-bisphosphate 3-kinase catalytic subunit delta isoform (Homo sapiens, UniProt O00329)
Sequence (O00329 whole entry, canonical isoform): as the sequence (O00329 whole entry, canonical isoform) above
Assay: Inhibition of PI3Kdelta (unknown origin)
Conditions: not given

IC50 | Compound
0.307 µM | Nc1nc2c(s1)CC(n1nc(-c3cc(F)c4[nH]ccc4c3)c3c(N)ncnc31)CC2 (configuration not stated)

Test system: not listed separately
Assay: Metabolic stability in human liver microsomes assessed as compound remaining at 1 uM in presence of NADPH as cofactor measured after 30 mins by LC-MS/MS method
Type: ADME, microsome
Conditions: read-out: Stability

remaining at 0.5 h, 1 µM | Compound
71% | CNCc1ccc(-c2cc(-c3nc(-c4ccc(S(=O)(=O)C(C)C)cc4)cnc3N)on2)cc1 [BERZOSERTIB]

Test system: not listed separately
Assay: Metabolic stability in rat liver microsomes assessed as compound remaining at 1 uM in presence of NADPH as cofactor measured after 30 mins by LC-MS/MS method
Type: ADME, microsome
Conditions: read-out: Stability

remaining at 0.5 h, 1 µM | Compound
80% | CNCc1ccc(-c2cc(-c3nc(-c4ccc(S(=O)(=O)C(C)C)cc4)cnc3N)on2)cc1 [BERZOSERTIB]

Test system: not listed separately
Assay: Metabolic stability in mouse liver microsomes assessed as compound remaining at 1 uM in presence of NADPH as cofactor measured after 30 mins by LC-MS/MS method
Type: ADME, microsome
Conditions: read-out: Stability

remaining at 0.5 h, 1 µM | Compound
77% | CNCc1ccc(-c2cc(-c3nc(-c4ccc(S(=O)(=O)C(C)C)cc4)cnc3N)on2)cc1 [BERZOSERTIB]
